Bounds are passed on as bounds.

For one series, the system named is Plasmodium falciparum. Description: Antiplasmodial activity against Plasmodium falciparum D6 measured after 72 hrs by SYBR green fluorescence dye based microplate reader analysis. The format is functional, organism-based. To be noted: D6, 72 h.
A further series relates to Leishmania major. Description: Antileishmanial activity against Leishmania major amastigotes infected in mouse RAW 264.7 cells by luciferase reporter gene assay. Format: functional, organism-based. Conditions: RAW264.7. (In general: A reporter such as luciferase makes a cellular process visible.)
Series [1] deals with Trypanosoma cruzi. Description: Antitrypanosomal activity against Trypanosoma cruzi CaI-72 trypomastigotes infected in mouse C2C12 cells measured after 72 hrs by DAPI staining based assay. Format: functional, organism-based. Conditions: CaI-72, C2C12, 72 h.
In a further series the test system is Leishmania donovani. Description: Antileishmanial activity against Leishmania donovani infected in mouse B10R cells after 72 hrs by DAPI staining based assay. The format is functional, organism-based.
Series [2] deals with Trypanosoma cruzi. The series is described as follows: Antitrypanosomal activity against Trypanosoma cruzi Tulahuen trypomastigotes infected in mouse NIH/3T3 cells measured after 96 hrs by beta-galactosidase reporter gene assay. The format is functional, organism-based. Conditions: NIH3T3, 96 h.
Series [3] is described as follows: Selectivity index, ratio of TC50 for human HepG2 cells to EC50 for antiplasmodial activity against Plasmodium falciparum D6. The format is toxicity.
A short description of series [4]: Selectivity index, ratio of TC50 for mouse C2C12 cells to EC50 for antitrypanosomal activity against Trypanosoma cruzi CaI-72 trypomastigotes infected in mouse C2C12 cells. The format is toxicity, cell-based.
Series [5] in a line: Selectivity index, ratio of TC50 for human HepG2 cells to EC50 for antileishmanial activity against Leishmania major amastigotes infected in mouse RAW 264.7 cells. Format: toxicity, cell-based.

In general, EC50 refers to the concentration giving half of the maximal effect. The low end stands for greater potency, the high end for weaker potency. For the molecule `COc1ccc(NC(=O)c2ccc(-c3cnc(N4CCCN(C)CC4)nc3)cc2O)cc1Cl`, the EC50 was 0.088 µM in the series with Plasmodium falciparum, more than 4.3 µM in the series on Leishmania major, more than 10 µM in the series on Trypanosoma cruzi [1] and more than 10 µM with Leishmania donovani.
In the case of `CN1CCN(c2ccc(-c3ccc4c(Nc5cnccn5)ccnc4c3)cc2)CC1`, the EC50 with Trypanosoma cruzi [2] was 6.1 µM; in the series with Plasmodium falciparum, 0.074 µM; in the series on Leishmania major, more than 23 µM.
`CN1CCCN(c2ncc(-c3ccc4c(Nc5cccnc5)ccnc4c3)cn2)CC1`: the selectivity ratio in series [3] is more than 1320. Besides, the EC50 is 0.025 µM with Plasmodium falciparum, more than 22 µM in the series with Leishmania major, more than 10 µM in the series on Trypanosoma cruzi [1] and more than 10 µM in the series on Leishmania donovani.
With `CN1CCCN(c2ncc(-c3ccc4c(c3)ncc3c5ccccc5[nH]c43)cn2)CC1`, the values for the selectivity ratio in series [3] and in series [4] were more than 161 and 6.7, respectively. For the same molecule, the values for the EC50 in the series on Plasmodium falciparum, with Leishmania major and with Trypanosoma cruzi [1] were 0.046 µM, more than 5 µM and 0.24 µM, respectively.
On to `CN1CCN(c2ncc(Nc3ccc4c(Nc5cnccn5)ccnc4c3)cn2)CC1`, for which the EC50 in the series on Trypanosoma cruzi [2] stood at 47 µM; in the series with Plasmodium falciparum, 0.077 µM; with Leishmania major, 1.7 µM. The values for the selectivity ratio in series [3] and in series [5] were 312 and 14, respectively.
Consider `Cc1c(-c2cnc(N3CCN(C)CC3)nc2)ccc2c(Nc3cnccn3)ccnc12`, for which the EC50 was 25 µM in the series with Trypanosoma cruzi [2], 0.069 µM with Plasmodium falciparum and more than 24 µM with Leishmania major.
As for `CCN1CCN(c2ncc(-c3ccc4c(Nc5cnccn5)ccnc4c3)cn2)CC1`, the EC50 came to 0.029 µM in the series on Plasmodium falciparum, 24 µM with Leishmania major and 7.7 µM with Trypanosoma cruzi [1].
For the molecule `CN1CCCN(c2ncc(-c3ccc4c(Nc5ccccn5)ccnc4c3)cn2)CC1`, the figures for the selectivity ratio in series [3] and in series [4] were 487 and 7.5, respectively. The EC50 with Plasmodium falciparum is 0.039 µM; with Leishmania major, more than 24 µM; in the series with Trypanosoma cruzi [1], 1.3 µM; in the series with Leishmania donovani, more than 10 µM.
With `CN1CCCN(S(=O)(=O)c2ccc(-c3ccc4c(Nc5ccc(Cl)cn5)ccnc4c3)cc2)CC1`, the selectivity ratio in series [3] turned out to be 35; in series [5] it was 1.4; in series [4], 21. The EC50 was 0.051 µM in the series with Plasmodium falciparum, 1.3 µM in the series with Leishmania major, 0.16 µM in the series with Trypanosoma cruzi [1] and more than 10 µM with Leishmania donovani.
For the molecule `COc1ccc(NC(=O)c2ccc(-c3cccc(N4CCOCC4)c3)cc2O)cc1Cl`, in series [5], the selectivity ratio was more than 97. In addition, the EC50 with Plasmodium falciparum was more than 23 µM; in the series on Leishmania major it was 0.36 µM; in the series on Trypanosoma cruzi [1], more than 10 µM; with Leishmania donovani, more than 10 µM.
Regarding `CN1CCCN(S(=O)(=O)c2ccc(-c3ccc4c(Nc5ccc(OC(F)(F)F)cc5)ccnc4c3)cc2)CC1`, the selectivity ratio in series [3] stood at 11; in series [5], 7.3; in series [4] it was 40. Moreover, the concentration for a half-maximal effect (EC50) is 0.14 µM in the series on Plasmodium falciparum, 0.22 µM in the series with Leishmania major, 0.13 µM in the series on Trypanosoma cruzi [1] and more than 10 µM in the series with Leishmania donovani.
Regarding `CCCn1cc/c(=N\c2cnccn2)c2ccc(-c3cnc(N4CCCN(C)CC4)nc3)cc21`, the selectivity ratio in series [3] was more than 379; in series [5] it was more than 22; in series [4] it was 1.4. In addition, the concentration for a half-maximal effect (EC50) in the series on Plasmodium falciparum was 0.087 µM; in the series on Leishmania major, 1.5 µM; with Trypanosoma cruzi [1], 2.1 µM; in the series on Leishmania donovani, more than 10 µM.
Take `Cc1cnc(Nc2ccnc3cc(-c4cnc(N5CCCN(C)CC5)nc4)ccc23)cn1`: the EC50 in the series on Plasmodium falciparum was 0.024 µM; with Leishmania major, more than 23 µM.
On to `COc1ccc(NC(=O)c2cc(F)c(N3CCCN(C)CC3)cc2F)cc1Cl`, for which the figures for the selectivity ratio in series [3] and in series [4] were more than 5.2 and 1.6, respectively. Also, the EC50 in the series on Plasmodium falciparum was 4.6 µM; with Leishmania major it was more than 24 µM; in the series on Trypanosoma cruzi [1] it was 5.5 µM.
For the molecule `CN1CC2(CCN(c3ncc(-c4ccc5c(Nc6cnccn6)ccnc5c4)cn3)C2)C1`, the values for the selectivity ratio in series [3] and in series [4] were more than 414 and 1.9, respectively. Moreover, the values for the EC50 with Plasmodium falciparum, with Leishmania major and in the series with Trypanosoma cruzi [1] were 0.058 µM, more than 24 µM and 0.22 µM, respectively.
Take `CN1CCN(c2ncc(-c3ccc4/c(=N/c5cnccn5)ccn(C)c4c3)cn2)CC1`: the values for the selectivity ratio in series [3] and in series [5] were 133 and more than 10, respectively. Moreover, the EC50 in the series on Plasmodium falciparum was 0.18 µM; in the series with Leishmania major, 2.3 µM; in the series with Trypanosoma cruzi [1], more than 10 µM; in the series on Leishmania donovani, more than 10 µM.
Consider `CN1CCCN(c2ncc(-c3ccc(C(=O)Nc4cccc(Cl)c4F)c(O)c3)cn2)CC1`, for which the selectivity ratio was more than 310 in series [3] and 1.6 in series [4]. Moreover, the EC50 in the series on Plasmodium falciparum was 0.071 µM; with Leishmania major it was more than 2.2 µM; with Trypanosoma cruzi [1], 3.9 µM.
With `CN1CCN(c2ncc(-c3ccc4c(NCCN5CCCC5)ccnc4c3)cn2)CC1`, the EC50 is 0.024 µM in the series with Plasmodium falciparum, more than 24 µM with Leishmania major, 2.1 µM in the series with Trypanosoma cruzi [1] and more than 10 µM in the series on Leishmania donovani.
`CN1CCN(c2ccc(Nc3ccc4c(Nc5cnccn5)ccnc4c3)cc2)CC1`: the EC50 in the series with Plasmodium falciparum is 0.13 µM; in the series on Leishmania major, 7.9 µM.
As to `CCn1cc/c(=N\c2cnccn2)c2ccc(-c3cnc(N4CCCN(C)CC4)nc3)cc21`, the selectivity ratio is more than 200 in series [3], more than 1.5 in series [5] and 1 in series [4]. Besides, the EC50 in the series on Plasmodium falciparum was 0.17 µM; in the series on Leishmania major, 23 µM; with Trypanosoma cruzi [1], 3 µM; with Leishmania donovani it was more than 10 µM.
As to `CN1C[C@H]2C[C@@H]1CN2c1ncc(-c2ccc3c(Nc4cnccn4)ccnc3c2)cn1`, the values for the EC50 in the series on Plasmodium falciparum, with Leishmania major and with Trypanosoma cruzi [1] were 0.052 µM, 2.6 µM and 6.1 µM, respectively.
`CC(C)(C)OC(=O)N1CCN(c2ncc(-c3ccc4c(Nc5cnccn5)ccnc4c3)cn2)CC1`: the EC50 is more than 50 µM in the series on Trypanosoma cruzi [2], 0.15 µM with Plasmodium falciparum and 0.35 µM in the series with Leishmania major. Moreover, the selectivity ratio was more than 207 in series [3] and more than 89 in series [5].
Consider `CN1CCN(c2ncc(-c3ccc4c(NC5CCOCC5)ccnc4c3)cn2)CC1`, for which the selectivity ratio in series [3] was 600. Moreover, the EC50 was 0.025 µM in the series on Plasmodium falciparum, more than 25 µM in the series with Leishmania major, more than 10 µM with Trypanosoma cruzi [1] and 4 µM with Leishmania donovani.
As for `CN1CCN(c2ncc(-c3ccc4c(N[C@@H]5CCCC[C@H]5O)ccnc4c3)cn2)CC1`, the EC50 with Plasmodium falciparum is 0.037 µM; with Leishmania major, more than 2.4 µM; in the series on Trypanosoma cruzi [1], more than 10 µM; with Leishmania donovani, more than 10 µM.
Consider `CN1CCN(c2ncc(-c3ccc4c(NC5CCC(N(C)C)CC5)ccnc4c3)cn2)CC1` (stereo not given), for which the EC50 in the series on Plasmodium falciparum is 0.053 µM; in the series with Leishmania major, more than 2.2 µM; with Trypanosoma cruzi [1], more than 10 µM; in the series with Leishmania donovani, more than 10 µM.
Turning to `CN1CCN(c2ccnc(Nc3ccc4c(Nc5cnccn5)ccnc4c3)n2)CC1`, the EC50 in the series on Trypanosoma cruzi [2] is more than 20 µM; in the series on Plasmodium falciparum, 0.054 µM.
`COc1ccc(Nc2ccnc3cc(-c4cnc(N5CCCN(C)CC5)nc4)ccc23)cc1Cl`: the selectivity ratio turned out to be 1130 in series [3], 4.3 in series [5] and 12 in series [4]. The EC50 is 0.006 µM in the series with Plasmodium falciparum, 1.6 µM with Leishmania major, 0.08 µM with Trypanosoma cruzi [1] and more than 10 µM with Leishmania donovani.
For `CN1CCN(c2ncc(-c3ccc4c(NCC5CCOCC5)ccnc4c3)cn2)CC1`, the selectivity ratio came out at 615 in series [3] and 3.2 in series [4]. The EC50 in the series with Plasmodium falciparum was 0.026 µM; in the series with Leishmania major, more than 24 µM; in the series with Trypanosoma cruzi [1], 1.2 µM; in the series with Leishmania donovani, 8.7 µM.
`Cc1cncc(Nc2ccnc3cc(-c4cnc(N5CCCN(C)CC5)nc4)ccc23)n1`: the values for the selectivity ratio in series [3] and in series [5] were 947 and 2, respectively. Further, the EC50 with Plasmodium falciparum amounted to 0.019 µM; in the series with Leishmania major, 9.2 µM.
`Cc1cc2c(Nc3cnccn3)ccnc2cc1-c1cnc(N2CCN(C)CC2)nc1`: the EC50 in the series on Trypanosoma cruzi [2] amounted to 22 µM; in the series on Plasmodium falciparum, 0.18 µM; in the series with Leishmania major, 1.8 µM. Also, the values for the selectivity ratio in series [3] and in series [5] were 33 and 3.3, respectively.
`CCCN1CCN(c2ncc(-c3ccc4c(Nc5cnccn5)ccnc4c3)cn2)CC1`: the results for the EC50 in the series on Plasmodium falciparum, in the series with Leishmania major and with Trypanosoma cruzi [1] were 0.023 µM, 4.3 µM and 7.6 µM, respectively.
As to `O=S(=O)(c1ccc(-c2ccc3nccc(NCCC4CCOCC4)c3c2)cc1)N1CCOCC1`, the selectivity ratio in series [3] is more than 280; in series [4] it was 1.3. In addition, the EC50 with Plasmodium falciparum is 0.075 µM; in the series on Leishmania major, more than 21 µM; in the series on Trypanosoma cruzi [1], 4.7 µM; in the series on Leishmania donovani, more than 10 µM.
Take `O=S(=O)(c1ccc(-c2ccc3nccc(NCCN4CCCC4)c3c2)cc1)N1CCOCC1`: the selectivity ratio turned out to be 307 in series [3] and 0.89 in series [4]. For the same molecule, the EC50 with Plasmodium falciparum is 0.03 µM; in the series on Leishmania major, more than 21 µM; with Trypanosoma cruzi [1], 1.9 µM.
For `CN1CCCN(c2ncc(-c3ccc4c(Nc5cnccn5)ccnc4c3)cn2)CC1`, the EC50 with Plasmodium falciparum came out at 0.024 µM; in the series on Leishmania major it was 24 µM; in the series with Trypanosoma cruzi [1], 1.2 µM.
For `CN1CCC2(CCN(c3ncc(-c4ccc5c(Nc6cnccn6)ccnc5c4)cn3)C2)C1` (stereo not given), the selectivity ratio amounted to 533 in series [3] and 19 in series [4]. Besides, the values for the EC50 in the series on Plasmodium falciparum, in the series on Leishmania major and in the series with Trypanosoma cruzi [1] were 0.03 µM, more than 23 µM and 0.52 µM, respectively.
For the molecule `CN1CCN(c2nccc(Nc3ccc4c(Nc5cnccn5)ccnc4c3)n2)CC1`, the EC50 was more than 50 µM with Trypanosoma cruzi [2], 0.18 µM with Plasmodium falciparum and 3.3 µM with Leishmania major.
With `c1cnc(Nc2ccnc3cc(-c4cnc(N5CCNCC5)nc4)ccc23)cn1`, the EC50 with Trypanosoma cruzi [2] was more than 50 µM; in the series with Plasmodium falciparum, 0.13 µM; with Leishmania major, more than 5.2 µM. In addition, the selectivity ratio in series [3] is more than 300.

Values taken from ChEMBL document CHEMBL4342474, “Scaffold and Parasite Hopping: Discovery of New Protozoal Proliferation Inhibitors” (ACS Med Chem Lett, 2020).
